Test results taken from patent US12690589B2, “Herbicidal compositions comprising pyroxasulfone” (BASF SE, priority 2024, dated 2026).
Several values for one entry are separate records, joined by “and”; a condition that tells them apart may be missing. Equal entries are not always repeated.

How the values were obtained:
Assay in all cases: Post-emergence application in field trials, herbicidal activity (damage scale 0 to 100%)
Type in all cases: in vivo
[1] = test system: Setaria verticillata (SETVE)
Method in brief: (§1)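 Field sites with natural or seeded weeds were sprayed post-emergence via flat fan nozzles in 200 l/ha water plus 0.25 v/v % MSO adjuvant, solo or mixed with pyroxasulfone and other partners. Damage was scored 0–100% versus untreated plants at indicated DAT. Colby expected values were used to judge synergy.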

[2] = test system: Amaranthus retroflexus (AMARE)
Method in brief: as §1

[3] = test system: Spermacoce latifolia (BOILF); settings: 21 DAT, Table 2.5
[4] = test system: Brachiaria plantaginea (BRAPL); settings: growth stage 21-25, height 10-15 cm, A-1 25 g ai/ha, 20 DAT, Table 2.1
Panicum maximum (PANMA) = settings: height 20-25 cm, A-1 25 g ai/ha, 21 DAT, Table 2.3
Bidens pilosa (BIDPI) = test system: Bidens pilosa (BIDPI)
[5] = test system: Euphorbia heterophylla (EPHHL); settings: 21 DAT
[6] = test system: Amaranthus viridis (AMAVI); settings: growth stage 16-18, height 10-15 cm, 20 DAT, Table 2.1
[7] = test system: Portulaca oleracea (POROL); settings: growth stage 14-16, height 5-10 cm, A-1 50 g ai/ha, 20 DAT, Table 2.1
Ipomoea triloba (IPOTR) = settings: height 20-25 cm, A-1 25 g ai/ha, 21 DAT, Table 2.2
Eleusine indica (ELEIN) = test system: Eleusine indica (ELEIN)
[8] = test system: Galinsoga parviflora (GASPA); settings: height 15-35 cm, 21 DAT, Table 2.4
[9] = 7 DAT, stage 21-23, height 8-16 cm, g ai/ha A-1 18, B 70, C-12 252
[10] = 7 DAT, stage 21-23, height 8-16 cm, g ai/ha A-1 18, B 90, C-12 252
[11] = 21 DAT, stage 21-23, height 8-16 cm, g ai/ha A-1 18, B 90, C-12 252
[12] = 42 DAT, stage 21-23, height 8-16 cm, g ai/ha A-1 12.5, B 70, C-12 252
[13] = 42 DAT, stage 21-23, height 8-16 cm, g ai/ha A-1 18, B 90, C-12 252
[14] = Table 8.1, 7 DAT, stage 21-23, height 8-16 cm, g ai/ha A-1 18, B 70, C-12 1066
[15] = Table 8.2, 21 DAT, stage 21-23, height 8-16 cm, g ai/ha A-1 12.5, B 70, C-12 1066
[16] = Table 8.4, 42 DAT, stage 21-23, height 8-16 cm, g ai/ha A-1 12.5, B 70, C-12 1066
[17] = 21 DAT, stage 31-49, height 10-12 cm, g ai/ha A-1 18, B 70, C-12 252
[18] = 21 DAT, stage 31-49, height 10-12 cm, g ai/ha A-1 18, B 90, C-12 252

CCOC(=O)COc1ccccc1Oc1nc(-n2c(=O)cc(C(F)(F)F)n(C)c2=O)c(F)cc1Cl [A-1, ethyl 2-[2-[[3-chloro-5-fluoro-6-[3-methyl-2,6-dioxo-4-(trifluoromethyl)pyrimidin-1-yl]-2-pyridyl]oxy]phenoxy]acetate]
% Herbicidal activity ([1]; 7 DAT, stage 21-23, height 8-16 cm, g ai/ha A-1 18, B 70, C-8 840): 75% | % Herbicidal activity [1, 9]: 70% | % Herbicidal activity ([1]; 7 DAT, stage 21-23, height 8-16 cm, g ai/ha A-1 18, B 90, C-4 12.5): 80% | % Herbicidal activity ([1]; 7 DAT, stage 21-23, height 8-16 cm, g ai/ha A-1 18, B 90, C-8 840): 75% | % Herbicidal activity [1, 10]: 70% | % Herbicidal activity [1, 11]: 65% | % Herbicidal activity ([1]; 42 DAT, stage 21-23, height 8-16 cm, g ai/ha A-1 12.5, B 70): 50% | % Herbicidal activity [1, 12]: 50% | % Herbicidal activity ([1]; 42 DAT, stage 21-23, height 8-16 cm, g ai/ha A-1 18, B 70): 70% | % Herbicidal activity [1, 13]: 50% | % Herbicidal activity ([1]; SETVE, growth stage 21-23, height 8-16 cm, A-1 12.5 g ai/ha, 7 DAT, Table 4.1): 75% | % Herbicidal activity ([1]; SETVE, growth stage 21-23, height 8-16 cm, A-1 12.5 g ai/ha, 21 DAT, Table 4.3): 70% | % Herbicidal activity ([1]; SETVE, growth stage 21-23, height 8-16 cm, A-1 18 g ai/ha, 7 DAT, Table 4.1): 75% | % Herbicidal activity ([1]; SETVE, growth stage 21-23, height 8-16 cm, A-1 18 g ai/ha, 21 DAT, Table 4.3): 75% | % Herbicidal activity [1, 14]: 75% | % Herbicidal activity [1, 15]: 70% | % Herbicidal activity [1, 16]: 60% | % Herbicidal activity ([2]; 7 DAT, stage 31-49, height 10-12 cm, g ai/ha A-1 12.5, B 70, C-4 12.5): 80% | % Herbicidal activity [2, 17]: 80% | % Herbicidal activity [2, 18]: 80% | % Herbicidal activity ([2]; 42 DAT, stage 31-49, height 10-12 cm, g ai/ha A-1 12.5, B 70, C-4 12.5): 80% | % Herbicidal activity ([2]; 42 DAT, stage 31-49, height 10-12 cm, g ai/ha A-1 18, B 70): 90% | % Herbicidal activity ([2]; 42 DAT, stage 31-49, height 10-12 cm, g ai/ha A-1 18, B 70, C-4 12.5): 85% | % Herbicidal activity ([2]; 42 DAT, stage 31-49, height 10-12 cm, g ai/ha A-1 18, B 90, C-4 12.5): 85% | % Herbicidal activity ([2]; AMARE, growth stage 31-49, height 10-12 cm, A-1 12.5 g ai/ha, 7 DAT, Table 4.1): 80% | % Herbicidal activity ([2]; AMARE, growth stage 31-49, height 10-12 cm, A-1 12.5 g ai/ha, 21 DAT, Table 4.3): 90% | % Herbicidal activity ([2]; AMARE, growth stage 31-49, height 10-12 cm, A-1 18 g ai/ha, 7 DAT, Table 4.1): 80% and 93% | % Herbicidal activity ([2]; AMARE, growth stage 31-49, height 10-12 cm, A-1 18 g ai/ha, 21 DAT, Table 4.3): 80% and 92% | % Herbicidal activity ([3]; A-1 25 g ai/ha): 94% | % Herbicidal activity ([3]; A-1 50 g ai/ha): 97% | % Herbicidal activity [4]: 49% | % Herbicidal activity (Panicum maximum (PANMA)): 75% | % Herbicidal activity (Bidens pilosa (BIDPI); growth stage 12-16, height 5-10 cm, A-1 25 g ai/ha, 21 DAT, Table 2.6): 94% | % Herbicidal activity (Bidens pilosa (BIDPI); growth stage 23-25, height 10-20 cm, A-1 25 g ai/ha, 20 DAT, Table 2.1): 71% | % Herbicidal activity (Bidens pilosa (BIDPI); growth stage 23-25, height 10-20 cm, A-1 50 g ai/ha, 20 DAT, Table 2.1): 77% | % Herbicidal activity (Bidens pilosa (BIDPI); height 20-45 cm, A-1 50 g ai/ha, 21 DAT, Table 2.4): 92% | % Herbicidal activity ([5]; growth stage 12-16, height 5-15 cm, A-1 25 g ai/ha, Table 2.6): 97% | % Herbicidal activity ([5]; growth stage 12-16, height 5-15 cm, A-1 50 g ai/ha, Table 2.6): 98% | % Herbicidal activity ([5]; height 15-35 cm, A-1 50 g ai/ha, Table 2.4): 95% | % Herbicidal activity ([5]; height 20-25 cm, A-1 25 g ai/ha, Table 2.2): 86% | % Herbicidal activity ([6]; A-1 25 g ai/ha): 71% | % Herbicidal activity ([6]; A-1 50 g ai/ha): 83% | % Herbicidal activity [7]: 60% | % Herbicidal activity (Ipomoea triloba (IPOTR)): 88% | % Herbicidal activity (Eleusine indica (ELEIN); growth stage 21-25, height 5-10 cm, A-1 25 g ai/ha, 20 DAT, Table 2.1): 53% | % Herbicidal activity (Eleusine indica (ELEIN); growth stage 21-25, height 5-10 cm, A-1 50 g ai/ha, 20 DAT, Table 2.1): 59% | % Herbicidal activity (Eleusine indica (ELEIN); growth stage 23-25, height 3-5 cm, A-1 25 g ai/ha, 21 DAT, Table 2.6): 94% | % Herbicidal activity (Eleusine indica (ELEIN); growth stage 23-25, height 3-5 cm, A-1 50 g ai/ha, 21 DAT, Table 2.6): 95% | % Herbicidal activity (Eleusine indica (ELEIN); height 20-25 cm, A-1 25 g ai/ha, 21 DAT, Table 2.3): 52% | % Herbicidal activity ([8]; A-1 25 g ai/ha): 82% | % Herbicidal activity ([8]; A-1 50 g ai/ha): 94%

CP(=O)(O)CC[C@H](N)C(=O)O.N [C-12, glufosinate-P-ammonium]
% Herbicidal activity [1, 9]: 65% | % Herbicidal activity [1, 10]: 65% | % Herbicidal activity [1, 11]: 65% | % Herbicidal activity [1, 12]: 35% | % Herbicidal activity [1, 13]: 35% | % Herbicidal activity [1, 14]: 25% | % Herbicidal activity [1, 15]: 25% | % Herbicidal activity [1, 16]: 15% | % Herbicidal activity [2, 17]: 90% | % Herbicidal activity [2, 18]: 90%
